Values of other authors as cited in US5574025A, “Inhibitors of prenyl-protein transferases” (Merck & Co., Inc., priority 1994, dated 1996).

Tested on: Ras
Details: Hancock et al., Casey et al., Schafer et al.

SMILES | Inhibition of Ras famesylation in vivo
CC[C@H](C)C(=O)O[C@H]1CCC=C2C=C[C@H](C)[C@H](CC[C@@H]3C[C@@H](O)CC(=O)O3)[C@H]21 [compactin] | Inhibition of Ras famesylation in vivo has been demonstrated
CC[C@H](C)C(=O)O[C@H]1C[C@@H](C)C=C2C=C[C@H](C)[C@H](CC[C@@H]3C[C@@H](O)CC(=O)O3)[C@H]21 [Lovastatin] | Inhibition of Ras famesylation in vivo has been demonstrated
